“And” between values parts separate entries of the source, which are not always exact repeats. Identical values can stand only once.
Experiments:
TAMs = test: Transwell 2D co-culture of pretreated A2780 cells and TAMs, colonies; type: cell-based, mouse
Method: CD45^+CD11b^+F4/80^+ TAMs were isolated from peritoneal metastasis of A2780 tumor-bearing mice and cultured in RPMI-1640 supplemented with 10% FBS, 1% penicillin/streptomycin, and 0–50 ng/ml CSF1 (R&D Systems) as indicated according to standard protocols. In the cancer cell-macrophage co-culture experiments, CSF1 was not added. In the transwell (Corning, pore size, 0.4 μm) co-culture experiments, tumor cells were placed into the upper chamber, and TAMs were seeded into the lower chamber. […]
with anti-CD45, CD11b and CD206 followed by FACS analysis. Shown are representative FACS plots (c) and quantification of the percentage of CD11b+CD206+ cells (d). Data are presented as mean ± SEM from 5 different mice. p values were calculated using two-tailed, unpaired t tests. **, p<0.01; ***, p<0.001. […] Quantification of spheroid volumes (f). Data are presented as mean ± SEM from 15 independent experiments. p values were calculated using two-tailed, unpaired t tests. **, p<0.01. […]
CD45+F4/80 +CD11b+CD206+ TAMs were isolated from tumors of ovarian cancer-bearing donor m i c e. Sh o wn are schematics of the experiment (g), representative images (h) and quantification of colonies (i). Data are presented as mean ± SEM from 3 independent experiments. p values were calculated using two-tailed, unpaired t tests. **, p<0.01; ***, p<0.001. […]

MDA-MB231 cells = test: 3D matrigel assay, MDA-MB231; type: cell-based, human; settings: MDA-MB231, 100 nM
Method: Fig. 2 NHWD-870 inhibited BRD4 phosphorylation and c-MYC expression, and suppressed cell growth. a Representative western blot analysis of p-BRD4 (s484/488), BRD4, c-MYC, and GAPDH after treatment of MDA-MB231, SUM159, A2780 ES-2, and H526 cells with JQ-1 or NHWD-870 at the indicated concentrations for 24 h. GAPDH served as the loading control. Selected from three independent experiments. b MTT assays of H526, A2780, ES-2, and MDA-MB231 cells treated with JQ-1 or NHWD-870 at the indicated concentrations for 5 days. Data are presented as mean ± SEM from three independent experiments. c, d Clonogenic assays of H526, A2780, ES-2 and MDA-MB231 cells treated with 250 nM JQ-1 or NHWD-870 for 5 days. Shown are representative images (c) and quantification of colonies (d). […] Shown are representative images (e) and quantification of relative colony sizes (f). Scale bar, 50 μm. Data are presented as mean ± SEM from five independent experiments. p values were calculated using two-tailed, unpaired t tests in this figure. **p < 0.01; ***p < 0.001. Source data are provided as a Source Data file.
Single clone spheroids were generated by culturing A2780, ES-2, H526 and MDA-MB231 cells for 16 h as a hanging drop over a humidified plate in a CO2 incubator in their corresponding complete media. […] The relative spheroid sizes were measured with ImageJ version 1.52s using the 15 representative spheroids.

[1] = MTS assay of non-cancerous cells; type: cell-based, human; design: Cell viability (Sup Fig.4a) / Cell viability (Sup Fig.4b) / Cell viability (Sup Fig.4b, 72h): unit not given here; settings: human
Method: (§1) Supplementary Figure 4. […] (a-c) MTS
(§2) assays of HaCAT cells (immortalized human keratinocytes) treated with the indicated concentration of
(§3) NHWD-870 for 24h (a), 48h (b) or 72h (c). Data are presented as mean ± SEM of 5 independent experiments.
(§4) p values were calculated from two-tailed, unpaired t tests. Source data are provided as a Source Data file.
(§5) 37℃, 5% CO2. […]

[2] = test system: HaCAT cells (immortalized human keratinocytes); test: MTS assay of non-cancerous cells; type: cell-based; design: Cell viability (Sup Fig.4a) / Cell viability (Sup Fig.4b) / Cell viability (Sup Fig.4b, 72h): unit not given here; settings: for Cell viability (Sup Fig.4b): 48h
Method: as §1, §2, §3, §4, §5

## Cc1nnn(C)c1-c1cnc2c3c4cnn(C)c4ccc3n([C@H](c3ccccc3)C3CCOCC3)c2c1 [NHWD-870]
TAMs; 50 nM, 2D system
  fold decrease of the growth of TAMs: about 6 fold
TAMs; A2780 pre-treated with 25 or 50 nM for 48h
  growth of TAMs in 2D co-culture system: potently decreased the growth of TAMs in a dose-dependent manner
MDA-MB231 cells
  Clone Size (relative colony size, 3D matrigel assay): 23.2 and 29.8 and 19 and 25.8 and 21.1
[1]; HaCAT cells (immortalized human keratinocytes), 24h, 8 nM, read-out: Cell viability (Sup Fig.4a)
  viability at 24 h, 0.008 µM: 92.2%
[1]; HaCAT cells (immortalized human keratinocytes), 24h, 16 nM, read-out: Cell viability (Sup Fig.4a)
  viability at 24 h, 0.016 µM: 110%
[1]; HaCAT cells (immortalized human keratinocytes), 24h, 64 nM, read-out: Cell viability (Sup Fig.4a)
  viability at 24 h, 0.064 µM: 103%
[1]; HaCAT cells (immortalized human keratinocytes), 24h, 250 nM, read-out: Cell viability (Sup Fig.4a)
  viability at 24 h, 0.25 µM: 104%
[1]; HaCAT cells (immortalized human keratinocytes), 24h, 500 nM, read-out: Cell viability (Sup Fig.4a)
  viability at 24 h, 0.5 µM: 100%
[1]; HaCAT cells (immortalized human keratinocytes), 48h, 32 nM, read-out: Cell viability (Sup Fig.4b)
  viability at 48 h, 0.032 µM: 91%
[1]; HaCAT cells (immortalized human keratinocytes), 48h, 64 nM, read-out: Cell viability (Sup Fig.4b)
  viability at 48 h, 0.064 µM: 83.9%
[1]; HaCAT cells (immortalized human keratinocytes), 48h, 250 nM, read-out: Cell viability (Sup Fig.4b)
  viability at 48 h, 0.25 µM: 88.5%
[1]; HaCAT cells (immortalized human keratinocytes), 48h, 500 nM, read-out: Cell viability (Sup Fig.4b)
  viability at 48 h, 0.5 µM: 86.7%
[1]; HaCAT cells (immortalized human keratinocytes), 48h, 1000 nM, read-out: Cell viability (Sup Fig.4b)
  viability at 48 h, 1 µM: 87.1%
[1]; HaCAT cells (immortalized human keratinocytes), 72h, 8 nM, read-out: Cell viability (Sup Fig.4b, 72h)
  viability at 72 h, 0.008 µM: 99.5%
[1]; HaCAT cells (immortalized human keratinocytes), 72h, 16 nM, read-out: Cell viability (Sup Fig.4b, 72h)
  viability at 72 h, 0.016 µM: 90.2%
[1]; HaCAT cells (immortalized human keratinocytes), 72h, 32 nM, read-out: Cell viability (Sup Fig.4b, 72h)
  viability at 72 h, 0.032 µM: 86.9%
[1]; HaCAT cells (immortalized human keratinocytes), 72h, 64 nM, read-out: Cell viability (Sup Fig.4b, 72h)
  viability at 72 h, 0.064 µM: 89.6%
[1]; HaCAT cells (immortalized human keratinocytes), 72h, 250 nM, read-out: Cell viability (Sup Fig.4b, 72h)
  viability at 72 h, 0.25 µM: 78.9%
[1]; HaCAT cells (immortalized human keratinocytes), 72h, 500 nM, read-out: Cell viability (Sup Fig.4b, 72h)
  viability at 72 h, 0.5 µM: 87.1%
[1]; HaCAT cells (immortalized human keratinocytes), 72h, 1000 nM, read-out: Cell viability (Sup Fig.4b, 72h)
  viability at 72 h, 1 µM: 78.4%
[1]; HaCAT cells (immortalized keratinocytes), 24h, 1000 nM, read-out: Cell viability (Sup Fig.4a)
  viability at 24 h, 1 µM: 108%
[1]; HaCAT cells (immortalized keratinocytes), 48h, 8 nM, read-out: Cell viability (Sup Fig.4b)
  viability at 48 h, 0.008 µM: 86.6%
[1]; HaCAT cells (immortalized keratinocytes), 48h, 16 nM, read-out: Cell viability (Sup Fig.4b)
  viability at 48 h, 0.016 µM: 89.9%
[2]; 24h, 48h or 72h
  effect on growth of HaCAT cells: minimal effects
[2]; 24h, 8 nM, 0.008 µM
  Cell viability (Sup Fig.4a): 96.6 and 101.8 and 89.4 and 88.3
[2]; 24h, 16 nM, 0.016 µM
  Cell viability (Sup Fig.4a): 98.4 and 107.6 and 95.8
[2]; 24h, 32 nM, 0.032 µM
  Cell viability (Sup Fig.4a): 83 and 93.4 and 105.5 and 99.6 and 95.5
[2]; 24h, 64 nM, 0.064 µM
  Cell viability (Sup Fig.4a): 112.7 and 111.1 and 101.6 and 109.8
[2]; 24h, 250 nM, 0.25 µM
  Cell viability (Sup Fig.4a): 109.5 and 106.5 and 97.6 and 108.3
[2]; 24h, 500 nM, 0.5 µM
  Cell viability (Sup Fig.4a): 119.6 and 110.7 and 109.3 and 105
[2]; 24h, 1000 nM, 1 µM
  Cell viability (Sup Fig.4a): 106.7 and 106.8 and 109.4 and 111.5
[2]; 8 nM, 0.008 µM
  Cell viability (Sup Fig.4b): 89.1 and 94.5 and 96.5
  Cell viability (Sup Fig.4b, 72h): 90.9 and 86.4 and 92.1 and 95.1
[2]; 16 nM, 0.016 µM
  Cell viability (Sup Fig.4b): 85.3 and 85.9 and 93.1 and 85.1
  Cell viability (Sup Fig.4b, 72h): 95.9 and 89.1 and 93.1
[2]; 32 nM, 0.032 µM
  Cell viability (Sup Fig.4b): 88.3 and 88.2
  Cell viability (Sup Fig.4b, 72h): 88.4 and 97.6 and 92.8 and 90.1
[2]; 64 nM, 0.064 µM
  Cell viability (Sup Fig.4b): 94.7 and 90.4 and 88.4
  Cell viability (Sup Fig.4b, 72h): 99.6 and 89.5 and 92.9
[2]; 250 nM, 0.25 µM
  Cell viability (Sup Fig.4b): 97.7 and 92.7 and 91.5
  Cell viability (Sup Fig.4b, 72h): 93.7 and 89.8 and 88
[2]; 500 nM, 0.5 µM
  Cell viability (Sup Fig.4b): 88 and 95 and 91.6 and 82.3
  Cell viability (Sup Fig.4b, 72h): 98.2 and 93.6 and 82.4 and 89.4
[2]; 1000 nM, 1 µM
  Cell viability (Sup Fig.4b): 88.6 and 81.5 and 80.9 and 84.8
  Cell viability (Sup Fig.4b, 72h): 74 and 86.3 and 92.4

Reference: publication PMC7156724, “Potent BRD4 inhibitor suppresses cancer cell-macrophage interaction” (Nature Communications, 2020)
